According to PMC3292421 (International Journal of Nanomedicine, 2012):
Read-outs that look alike come from different tables or passages of the source.

Columns and labels:
[1] = 25°C
[2] = long-term animal studies; cited from earlier work
P-glycoprotein = conditions: cited from earlier work

- Solubility ([1]; in Cremophor EL (surfactant)): 1.305 µmol/g
- Solubility ([1]; in Cremophor RH40 (surfactant)): 0.631 µmol/g
- Solubility ([1]; in GTCC (caprylic/capric triglyceride, oil)): 0.154 µmol/g
- Solubility ([1]; in IPM (isopropyl myristate, oil)): 0.087 µmol/g
- Solubility ([1]; in Labrafac Lipophile WL1349 (oil)): 0.159 µmol/g
- Solubility ([1]; in Labrafil M2125CS (oil)): 0.338 µmol/g
- Solubility ([1]; in Maisine 35-1 (oil)): 0.755 µmol/g
- Solubility ([1]; in Olive oil (oil)): 0.145 µmol/g
- Solubility ([1]; in PEG 200 (cosurfactant)): 0.093 µmol/g
- Solubility ([1]; in PEG 400 (cosurfactant)): 0.143 µmol/g
- Solubility ([1]; in Transcutol P (cosurfactant)): 1.356 µmol/g
SMILES: O=C1Nc2ccccc2/C1=C1/Nc2ccccc2C1=O [indirubin]
- Bone marrow toxicity and hematotoxicity [2]: neither bone marrow toxicity nor hematotoxicity
- Influence of P-glycoprotein on transport through the rat intestine membrane (P-glycoprotein): not influenced
